System: 855422-203-R-J1-PDC complex spheroid growth
Assay: Anticancer human tumor 855422-203-R-J1-PDC patient-derived bladder carcinoma cell line growth inhibition [AhR]
Conditions: for IC50: curve of first compound; for viability, T/C: stronger effect = lower value
Procedure, shortened: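 Complex tumor spheroids co-cultured with HUVEC and human MSC stroma; AhR antagonists tested in combination with standard-of-care and investigational agents. Top concentration at or near clinical Cmax (else 10 microM), half-log dilutions; growth expressed as percent test/control.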

[1] = second compound 0.1 µM, first compound 0.00316 µM
[2] = second compound 0.1 µM, first compound 0.01 µM
[3] = second compound 0.1 µM, first compound 0.0316 µM
[4] = second compound 0.1 µM, first compound 0.1 µM
[5] = second compound 0.316 µM, first compound 0.00316 µM
[6] = second compound 0.316 µM, first compound 0.01 µM
[7] = second compound 0.316 µM, first compound 0.0316 µM
[8] = second compound 0.316 µM, first compound 0.1 µM
[9] = second compound 1 µM, first compound 0.00316 µM
[10] = second compound 1 µM, first compound 0.01 µM
[11] = second compound 1 µM, first compound 0.0316 µM
[12] = second compound 1 µM, first compound 0.1 µM
[13] = second compound 3.16 µM, first compound 0.00316 µM
[14] = second compound 3.16 µM, first compound 0.01 µM
[15] = second compound 3.16 µM, first compound 0.0316 µM
[16] = second compound 3.16 µM, first compound 0.1 µM
[17] = second compound 10 µM, first compound 0.00316 µM
[18] = second compound 10 µM, first compound 0.01 µM
[19] = second compound 10 µM, first compound 0.0316 µM
[20] = second compound 10 µM, first compound 0.1 µM
[21] = second compound 0.1 µM, first compound 0.316 µM
[22] = second compound 0.1 µM, first compound 1 µM
[23] = second compound 0.316 µM, first compound 0.316 µM
[24] = second compound 0.316 µM, first compound 1 µM
[25] = second compound 1 µM, first compound 0.316 µM
[26] = second compound 1 µM, first compound 1 µM
[27] = second compound 3.16 µM, first compound 0.316 µM
[28] = second compound 3.16 µM, first compound 1 µM
[29] = second compound 10 µM, first compound 0.316 µM
[30] = second compound 10 µM, first compound 1 µM
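Further: spheroids exposed to agents for seven days before readout.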
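Wherever viability, T/C is given: percent of DMSO vehicle control luminescence viability.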

Compound | IC50 (second compound 0.1 µM) | IC50 (second compound 0.316 µM) | IC50 (second compound 1 µM) | IC50 (second compound 3.16 µM) | IC50 (second compound 10 µM) | viability, T/C [1] | viability, T/C [2] | viability, T/C [3] | viability, T/C [4] | viability, T/C [5] | viability, T/C [6] | viability, T/C [7] | viability, T/C [8] | viability, T/C [9] | viability, T/C [11] | viability, T/C [12] | viability, T/C [15] | viability, T/C [16] | viability, T/C [19] | viability, T/C [20] | also measured
CC[C@@]1(O)C(=O)OCc2c1cc1n(c2=O)Cc2cc3c(CN(C)C)c(O)ccc3nc2-1 + CC(CO)NC(=O)c1cc(-c2ccc(Cl)cc2)nn(-c2cnn(C)c2)c1=O | 60.2 nM | 58.6 nM | 56.4 nM | 54.7 nM | 45.1 nM | 93.7% | 102% | 86.5% | 20.9% | 98.8% | 98.9% | 87.3% | 17.9% | 105% | 84.9% | 15.5% | 83.5% | 13% | 65.8% | 14.8% | viability, T/C (second compound 0.1 µM, first compound 0.000316 µM): 96.7%; viability, T/C (second compound 0.1 µM, first compound 0.001 µM): 97.5%; viability, T/C (second compound 0.316 µM, first compound 0.000316 µM): 106%; viability, T/C (second compound 0.316 µM, first compound 0.001 µM): 100%; viability, T/C (second compound 1 µM, first compound 0.000316 µM): 104%; viability, T/C (second compound 1 µM, first compound 0.001 µM): 97.8%; viability, T/C [10]: 104%; viability, T/C (second compound 3.16 µM, first compound 0.000316 µM): 99.4%; viability, T/C (second compound 3.16 µM, first compound 0.001 µM): 96.6%; viability, T/C [13]: 93%; viability, T/C [14]: 95.5%; viability, T/C (second compound 10 µM, first compound 0.000316 µM): 86.2%; viability, T/C (second compound 10 µM, first compound 0.001 µM): 100%; viability, T/C [17]: 102%; viability, T/C [18]: 96.3%
Nc1ccccc1NC(=O)c1ccc(CNC(=O)OCc2cccnc2)cc1 + CC(CO)NC(=O)c1cc(-c2ccc(Cl)cc2)nn(-c2cnn(C)c2)c1=O | 3890 nM | 4060 nM | 4130 nM | 2870 nM | 3100 nM |  |  | 94.2% | 91.2% |  |  | 92.2% | 91.6% |  | 95.2% | 91.8% | 94% | 94.5% | 88.9% | 92.6% | viability, T/C [21]: 92%; viability, T/C [22]: 89.5%; viability, T/C (second compound 0.1 µM, first compound 3.16 µM): 57.9%; viability, T/C (second compound 0.1 µM, first compound 10 µM): 14.4%; viability, T/C [23]: 90.1%; viability, T/C [24]: 89.2%; viability, T/C (second compound 0.316 µM, first compound 3.16 µM): 60.7%; viability, T/C (second compound 0.316 µM, first compound 10 µM): 11.2%; viability, T/C [25]: 91.7%; viability, T/C [26]: 88.7%; viability, T/C (second compound 1 µM, first compound 3.16 µM): 61.5%; viability, T/C (second compound 1 µM, first compound 10 µM): 11.7%; viability, T/C [27]: 86.6%; viability, T/C [28]: 77.2%; viability, T/C (second compound 3.16 µM, first compound 3.16 µM): 47.2%; viability, T/C (second compound 3.16 µM, first compound 10 µM): 9.66%; viability, T/C [29]: 88.5%; viability, T/C [30]: 74.2%; viability, T/C (second compound 10 µM, first compound 3.16 µM): 50.2%; viability, T/C (second compound 10 µM, first compound 10 µM): 8.41%
CC1COCCN1c1cc(-c2ccnn2C)c2ccnc(-c3ccn[nH]3)c2n1 (stereo not given) + Cc1cncc(-c2nc(NCCc3c[nH]c4ccccc34)c3ncn(C(C)C)c3n2)c1 | 254 nM | 405 nM | 361 nM | 80.4 nM | < 3.16 nM | 83.7% | 96.2% | 93.6% | 97.8% | 91.3% | 91.1% | 74.9% | 85.6% | 77.2% | 85.5% | 71.4% | 63% | 28.6% | 3.12% | 6.41% | viability, T/C [21]: 39.9%; viability, T/C [22]: 12.7%; viability, T/C [23]: 60.6%; viability, T/C [24]: 11.1%; viability, T/C [10]: 79.9%; viability, T/C [25]: 55.6%; viability, T/C [26]: 10.7%; viability, T/C [13]: 75.6%; viability, T/C [14]: 77.2%; viability, T/C [27]: 50.5%; viability, T/C [28]: 9.55%; viability, T/C [17]: 3.1%; viability, T/C [18]: 4.56%; viability, T/C [29]: 2.62%; viability, T/C [30]: 1.62%

Reference: PubChem BioAssay AID1919005 (Molecular Pharmacology Branch, DTP, NCI, 2023)
